Structures are written as SMILES.

For the test, the target named is T1, IL-17A (Homo sapiens, UniProt Q16552).
T1 sequence (Q16552 24-155): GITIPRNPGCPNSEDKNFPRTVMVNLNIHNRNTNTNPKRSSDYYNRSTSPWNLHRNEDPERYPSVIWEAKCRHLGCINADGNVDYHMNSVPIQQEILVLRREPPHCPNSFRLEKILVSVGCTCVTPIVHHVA
Put plainly: Inhibition of IL-17A induced IL-6 release from dermal fibroblast cell line (HDF cell line assay). It counts as cell-based. The note with it: human dermal fibroblasts (HDF) stimulated with IL-17A 50 pM + TNF-α 25 pM; IL-6 measured by HTRF; pIC50 = −log10[IC50], IC50 molar. The text has this: Inhibition of IL-17A Induced IL-6 Release from Dermal Fibroblast Cell Line
The purpose of this assay is to test the neutralising ability to IL-17 proteins, in a human primary cell system. Stimulation of normal human dermal fibroblasts (HDF) with IL-17 alone produces only a very weak signal but in combination with certain other cytokines, such as TNFα, a synergistic effect can be seen in the production of inflammatory cytokines, i.e. IL-6.
HDFs were stimulated with IL-17A (50 pM) in combination with TNF-α (25 pM). The resultant IL-6 response was then measured using a homogenous time-resolved FRET kit from Cisbio. The kit utilises two monoclonal antibodies, one labelled with Eu-Cryptate (Donor) and the second with d2 or XL665 (Acceptor). The intensity of the signal is proportional to the concentration of IL-6 present in the sample (Ratio is calculated by 665/620×104).
The ability of a compound to inhibit IL-17 induced IL-6 release from human dermal fibroblasts is measured in this assay.
HDF cells (Sigma #106-05n) were cultured in complete media (DMEM+10% FCS+2 mM L-glutamine) and maintained in a tissue culture flask using standard techniques. Cells were harvested from the tissue culture flask on the morning of the assay using TrypLE (Invitrogen #12605036). The TrypLE was neutralised using complete medium (45 mL) and the cells were centrifuged at 300×g for 3 minutes. The cells were re-suspended in complete media (5 mL) counted and adjusted to a concentration of 3.125×10^4 cells/mL before being added to the 384 well assay plate (Corning #3701) at 40 μL per well. The cells were left for a minimum of three hours, at 37° C./5% CO2, to adhere to the plate.
Compounds were serially diluted in DMSO before receiving an aqueous dilution into a 384 well dilution plate (Greiner #781281), where 5 μL from the titration plate was transferred to 45 μL of complete media and mixed to give a solution containing 10% DMSO.
Mixtures of TNFα and IL-17 cytokine were prepared in complete media to final concentrations of TNFα 25 pM/IL-17A 50 pM, then 30 μL of the solution was added to a 384 well reagent plate (Greiner #781281).
10 μL from the aqueous dilution plate was transferred to the reagent plate containing 30 μL of the diluted cytokines, to give a 2.5% DMSO solution. The compounds were incubated with the cytokine mixtures for 5 h at 37° C. After the incubation, 10 μL was transferred to the assay plate, to give a 0.5% DMSO solution, then incubated for 18-20 h at 37° C./5% CO2.
From the Cisbio IL-6 FRET kit (Cisbio #62IL6PEB) europium cryptate and Alexa 665 were diluted in reconstitution buffer and mixed 1:1, as per kit insert. To a white low volume 384 well plate (Greiner #784075) were added FRET reagents (10 μL), then supernatant (10 μL) was transferred from the assay plate to Greiner reagent plate. The mixture was incubated at room temperature for 3 h with gentle shaking (<400 rpm) before being read on a Synergy Neo 2 plate reader (Excitation: 330 nm; Emission: […]).
Regarding `O=C(N[C@H](c1nc2nc([C@H]3C[C@](O)(C(F)F)CCN3C(=O)C34CC(F)(C3)C4)ccc2[nH]1)C(C1CC1)C1CC1)C1(F)CC1` (single isomer, unassigned) [Example 12], the IC50 is 0.794 µM. For `Cc1nonc1C(=O)N[C@H](c1nc2nc([C@H]3CC(F)(F)CCN3C(=O)C34CC(F)(C3)C4)ccc2[nH]1)C(C1CC1)C1CC1` (single isomer, unassigned) [Example 5] the value was 0.398 µM. As to `O=C(N[C@H](c1nc2nc([C@@H]3C[C@@](O)(C(F)F)CCN3C(=O)C34CC(F)(C3)C4)ccc2[nH]1)C(C1CC1)C1CC1)C1(F)CC1` (single isomer, unassigned) [Example 11], the IC50 was 0.00501 µM. To `Cc1nonc1C(=O)N[C@@H](c1nc2nc([C@H]3CC(F)(F)CCN3C(=O)C34CC(F)(C3)C4)ccc2[nH]1)C(C1CC1)C1CC1` (single isomer, unassigned) [Example 3] belongs 15.8 µM; to `Cc1nonc1C(=O)N[C@H](c1nc2nc([C@H]3C[C@](O)(C(F)(F)F)CCN3C(=O)C34CC(F)(C3)C4)ccc2[nH]1)C(C1CC1)C1CC1` (single isomer, unassigned) [Example 7], 2.51 µM; to `O=C(N1CCC(F)(F)CC1c1ccc2[nH]c(C(NC(=O)C3(C(F)(F)F)CC3)C(C3CC3)C3CC3)nc2n1)C12CC(F)(C1)C2` (centres unmarked) [Example 1, N-(2,2-Dicyclopropyl-1-{5-[4,4-difluoro-1-(3-fluorobicyclo[1.1.1]pentane-1-carbonyl)-piperidin-2-yl]-1H-imidazo[4,5-b]pyridin-2-yl}ethyl)-1-(trifluoromethyl)cyclopropane-carboxamide], 0.0631 µM.

Take `Cc1nonc1C(=O)N[C@@H](c1nc2nc([C@@H]3CC(F)(F)CCN3C(=O)C34CC(F)(C3)C4)ccc2[nH]1)C(C1CC1)C1CC1` (single isomer, unassigned) [Example 4]: the IC50 was 3.16 µM. To `Cc1nonc1C(=O)NC(c1nc2nc(C3CC(F)(F)CCN3C(=O)C34CC(F)(C3)C4)ccc2[nH]1)C(C1CC1)C1CC1` (centres unmarked) [Example 2, N-(2,2-Dicyclopropyl-1-{5-[4,4-difluoro-1-(3-fluorobicyclo[1.1.1]pentane-1-carbonyl)-piperidin-2-yl]-1H-imidazo[4,5-b]pyridin-2-yl}ethyl)-4-methyl-1,2,5-oxadiazole-3-carboxamide] belongs 0.0631 µM; to `Cc1nonc1C(=O)N[C@@H](c1nc2nc([C@H]3C[C@](O)(C(F)(F)F)CCN3C(=O)C34CC(F)(C3)C4)ccc2[nH]1)C(C1CC1)C1CC1` (single isomer, unassigned) [Example 9], more than 10 µM; to `Cc1nonc1C(=O)N[C@H](c1nc2nc([C@@H]3C[C@@](O)(C(F)(F)F)CCN3C(=O)C34CC(F)(C3)C4)ccc2[nH]1)C(C1CC1)C1CC1` (single isomer, unassigned) [Example 8], 0.00794 µM. For `Cc1nonc1C(=O)N[C@H](c1nc2nc([C@@H]3CC(F)(F)CCN3C(=O)C34CC(F)(C3)C4)ccc2[nH]1)C(C1CC1)C1CC1` (single isomer, unassigned) [Example 6] the value was 0.0126 µM.

A word on the IC50: it is the concentration at which inhibition is half-maximal.

Source of the values: patent publication US12643896B2, “Dicyclopropylmethyl derivatives as IL-17 modulators” (UCB Biopharma SRL, priority 2020, dated 2026).
